The values that follow come from patent US12116344B2, “Crystalline forms of a pharmaceutical compound” (Azafaros B.V., priority 2020, dated 2024).

A short description of series [1]: Brain:plasma exposure after repeat oral administration PND 11-70. Format: in vivo, mice. The settings on record: NPC1 (−/−) (Balb/c background), mouse, brain and plasma. The method, then: 24 NPC1 (−/−) mice were treated per oral gavage with AZ-3102-00 from post-natal day 11 (P11) to post-natal-day 70 (P70). Age-matched control mice included 6 NPC (−/−) and 4 NPC (+/−) mice treated with vehicle, and 4 NPC (+/+) mice received AZ-3102-00. After the last treatment on P70, NPC (−/−) mice (n=4 per timepoint) were euthanized by IP injection of 600 mg/kg pentobarbital at the following timepoints: 30 min, 1 h, 2 h, 4 h, 8 h, and 24 h. Control mice were also sacrificed after the last treatment (not time critical). Terminal blood was collected by heart puncture in EDTA coated tubes. Blood plasma was collected by centrifugation (3000×g for 10 minutes at room temperature) and 50 μL plasma aliquots were transferred to 1.5 mL tubes, frozen on dry ice and stored at −80° C.
24 NPC1 (−/−) mice (groups D to I) were treated per oral gavage (10 mL/kg) with AZ-3102-00 from post-natal day 11 (P11) to post-natal-day 70 (P70). Dosing will start at 1.5 mg/kg from P11 to P25, followed by 3 mg/kg from P26 to P70. Control mice included 6 NPC1 (−/−) and 4 NPC (+/−) mice treated with vehicle and 4 NPC (+/+) mice received AZ-3102-00 (groups A to C).
After the last treatment on P70, NPC (−/−) mice (n=4 per timepoint; groups D to I) were euthanized by IP injection of 600 mg/kg pentobarbital a the following timepoints: 30 min, 1 h, 2 h, 4 h, 8 h, and 24 h. Control mice (groups A, B and C) were also sacrificed after the last treatment (not time critical).
At 30 min (Group D), 1 h (+/−5 min. Group E), 2 h (+/−5 min. Group F), 4 h (+/−5 min. Group G), 8 h (+/−5 min. Group H), and 24 h (+/−5 min. Group 1) (all time critical) after the last treatment on P70, mice were euthanized by i.p. injection.
Plasma samples were first mixed for protein precipitation with a solution of acetonitrile containing 50 ng/mL of AZ-3101 (internal standard). After 5 minutes incubation at room temperature, the samples were centrifuged for 5 minutes (13000 rpm, 4° C.) and the supernatant was diluted 10-fold in ultrapure water with 0.1% formic acid.
Brain tissues were homogenized in a solution of ultrapure water:methanol (1:1) with 0.1% formic acid (4 mL for each gram of tissue) using a FastPrep 24™ Microtube homogenizer (MP Biomedicals, USA). Brain homogenates were mixed for protein precipitation with a solution of acetonitrile containing 10 ng/mL of AZ-3101 (internal standard). After 5 minutes incubation at room temperature, the samples were centrifuged for 5 minutes (13000 rpm, 4° C.) and the supernatant was diluted 10-fold in ultrapure water with 0.1% formic acid.
Diluted plasma and brain tissue supernatants were injected into an Agilent LC system (Agilent, USA) by an automated sample injector (SIL-30, Shimadzu, USA). […] Data were calibrated and quantified using the Analyst™ data system (AB Sciex, version 1.6.3). […]

The test system of series [2] is Hexb (−/−) mice. The series can be described thus: Clinical signs in mice suffering from Sandhoff disease. Format: in vivo. Particulars: initial data. The protocol: Mice suffering from Sandhoff disease were administered a therapeutically effective amount of AZ-3102.

Molecules are shown by their SMILES. Like-named read-outs stand apart in the source and are kept apart here.

With `OC[C@H]1[C@@H](O)[C@H](O)[C@@H](O)CN1CCCCCOCc1ccc(-c2ccccc2)c(F)c1` [AZ-3102], the Kp in series [1] (female, Female mice, read-out: Brain:Plasma Ratio AUC0-24) is 1.37; in series [1] (female, Female mice, read-out: Brain:Plasma Ratio Cmax), 0.41; in series [1] (male, Male mice, read-out: Brain:Plasma Ratio AUC0-24), 0.95; in series [1] (male, Male mice, read-out: Brain:Plasma Ratio Cmax) it was 0.26. For the same molecule, the “Clinical signs of diseased animals” value in series [2] was “improved”.
